ChEMBL document CHEMBL5537181 (J Med Chem, 2024)
Calls of active or inactive are those of the source. The rule behind the calls is not given here. Where a SMILES comes first, the peptide text is derived from it. Bridges are numbered along the chain shown (N, C = ends).

biological target: Voltage-dependent N-type calcium channel subunit alpha-1B (Homo sapiens, UniProt Q00975); assay: Inhibition of human Cav2.2 channel transfected in HEK293T cells co-expressed with human GABAB receptor assessed as inhibition of Cav2.2-mediated Ba2+ current at 100 nM measured for 3 to 5 days by whole-cell patch clamp assay; format: cell-based; conditions: time 3-5 day
Sequence (Q00975 whole entry, looked up): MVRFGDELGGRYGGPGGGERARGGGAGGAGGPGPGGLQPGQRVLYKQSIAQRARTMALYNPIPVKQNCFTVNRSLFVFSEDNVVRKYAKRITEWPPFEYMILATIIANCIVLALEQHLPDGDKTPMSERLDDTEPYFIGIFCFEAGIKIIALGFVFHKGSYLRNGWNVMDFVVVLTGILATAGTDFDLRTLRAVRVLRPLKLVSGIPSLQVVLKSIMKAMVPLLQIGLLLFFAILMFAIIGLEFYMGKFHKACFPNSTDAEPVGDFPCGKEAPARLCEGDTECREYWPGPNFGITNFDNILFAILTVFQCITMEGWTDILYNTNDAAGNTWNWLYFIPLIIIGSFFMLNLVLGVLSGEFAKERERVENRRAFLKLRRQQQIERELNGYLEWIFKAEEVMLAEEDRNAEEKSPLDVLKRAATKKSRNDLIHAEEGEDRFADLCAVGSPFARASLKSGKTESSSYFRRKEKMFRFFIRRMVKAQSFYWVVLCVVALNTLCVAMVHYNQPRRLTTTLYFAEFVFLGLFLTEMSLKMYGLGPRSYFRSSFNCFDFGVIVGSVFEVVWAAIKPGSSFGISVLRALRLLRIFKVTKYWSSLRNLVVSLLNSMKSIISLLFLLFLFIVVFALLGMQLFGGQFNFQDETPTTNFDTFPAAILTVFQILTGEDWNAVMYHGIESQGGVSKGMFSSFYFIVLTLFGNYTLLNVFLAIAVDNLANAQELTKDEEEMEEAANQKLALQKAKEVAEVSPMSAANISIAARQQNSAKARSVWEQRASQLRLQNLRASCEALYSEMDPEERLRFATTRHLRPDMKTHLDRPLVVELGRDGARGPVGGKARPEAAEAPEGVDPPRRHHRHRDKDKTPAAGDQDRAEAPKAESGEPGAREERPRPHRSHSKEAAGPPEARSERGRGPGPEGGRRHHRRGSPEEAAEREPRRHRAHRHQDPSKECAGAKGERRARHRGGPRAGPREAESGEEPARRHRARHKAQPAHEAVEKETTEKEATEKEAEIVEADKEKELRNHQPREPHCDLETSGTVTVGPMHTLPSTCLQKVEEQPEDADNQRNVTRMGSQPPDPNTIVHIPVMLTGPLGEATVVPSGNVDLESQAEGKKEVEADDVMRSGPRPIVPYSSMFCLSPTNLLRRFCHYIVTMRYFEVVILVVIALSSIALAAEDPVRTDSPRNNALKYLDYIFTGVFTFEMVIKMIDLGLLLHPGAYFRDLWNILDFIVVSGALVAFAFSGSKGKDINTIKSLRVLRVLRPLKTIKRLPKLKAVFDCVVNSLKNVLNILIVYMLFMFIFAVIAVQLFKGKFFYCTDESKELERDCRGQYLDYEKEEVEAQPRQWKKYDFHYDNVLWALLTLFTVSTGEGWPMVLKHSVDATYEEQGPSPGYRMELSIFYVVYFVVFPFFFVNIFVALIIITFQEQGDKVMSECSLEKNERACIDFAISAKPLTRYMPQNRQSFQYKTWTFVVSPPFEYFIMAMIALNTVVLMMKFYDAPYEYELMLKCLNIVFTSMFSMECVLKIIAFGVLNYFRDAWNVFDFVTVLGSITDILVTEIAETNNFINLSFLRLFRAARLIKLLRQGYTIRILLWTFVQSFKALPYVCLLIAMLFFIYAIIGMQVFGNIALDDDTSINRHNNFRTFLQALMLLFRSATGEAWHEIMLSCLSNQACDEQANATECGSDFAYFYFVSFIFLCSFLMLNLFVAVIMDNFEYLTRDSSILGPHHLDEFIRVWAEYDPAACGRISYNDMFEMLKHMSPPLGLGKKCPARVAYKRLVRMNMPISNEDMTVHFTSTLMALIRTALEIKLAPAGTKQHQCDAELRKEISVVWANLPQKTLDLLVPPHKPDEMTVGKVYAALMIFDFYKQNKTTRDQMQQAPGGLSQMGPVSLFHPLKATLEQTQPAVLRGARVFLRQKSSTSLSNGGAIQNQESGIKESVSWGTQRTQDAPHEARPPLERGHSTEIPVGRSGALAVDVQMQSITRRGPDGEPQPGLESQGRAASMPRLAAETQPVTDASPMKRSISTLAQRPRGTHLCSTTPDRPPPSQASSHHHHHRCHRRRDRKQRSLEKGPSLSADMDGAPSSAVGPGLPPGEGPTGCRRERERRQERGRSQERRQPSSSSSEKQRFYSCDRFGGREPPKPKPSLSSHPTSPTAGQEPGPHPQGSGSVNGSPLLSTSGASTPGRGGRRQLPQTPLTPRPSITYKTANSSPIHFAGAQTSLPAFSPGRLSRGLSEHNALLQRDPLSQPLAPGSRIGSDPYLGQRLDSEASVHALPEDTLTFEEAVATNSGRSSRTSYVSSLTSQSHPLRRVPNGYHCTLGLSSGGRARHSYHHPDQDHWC

Molecule	inhibition
H-GRARSPYDRRRRYRRITD-NH2	10%
H-GRYRSPADRRRRYRRITD-NH2	60%
H-GRYRSPYARRRRYRRITD-NH2	50%
H-GRYRSPYDARRRYRRITD-NH2	50%
H-GRYRSPYDRRRAYRRITD-NH2	10%
H-GRYRSPYDRRRRYARITD-NH2	10%
H-GRYRSPYDRRRRYRRATD-NH2	80%
H-GRYRSPYDRRRRYRRITA-NH2	10%

biological target: Neuronal acetylcholine receptor; alpha9/alpha10 (Homo sapiens) (UniProt Q9UGM1+Q9GZZ6); assay: Antagonist activity at human wild type alpha9alpha10 nAChR expressed in acetylcholine-induced Xenopus laevis oocytes assessed as inhibition of acetylcholine-induced current at 30 nM by two electrode voltage-clamp assay relative to control; format: cell-based; conditions: Oocyte

Molecule	inhibition
CC[C@@H](C)[C@@H](NC(=O)[C@@H](CCCNC(=N)N)NC(=O)[C@@H](CCCNC(=N)N)NC(=O)[C@@H](Cc1ccc(O)cc1)NC(=O)[C@@H](CCCNC(=N)N)NC(=O)[C@@H](CCCNC(=N)N)NC(=O)[C@@H](CCCNC(=N)N)NC(=O)[C@@H](CCCNC(=N)N)NC(=O)[C@@H](CC(=O)O)NC(=O)[C@@H](Cc1ccc(O)cc1)NC(=O)[C@H]1CCCN1C(=O)[C@@H](CO)NC(=O)[C@@H](CCCNC(=N)N)NC(=O)[C@@H](Cc1ccc(O)cc1)NC(=O)[C@@H](CCCNC(=N)N)NC(=O)CN)C(=O)N[C@@H](C(=O)N[C@H](CC(=O)O)C(N)=O)[C@H](C)O	25%
N=C(N)NCCC[C@@H]1NC(=O)[C@H](CCCNC(=N)N)NC(=O)[C@H](CCCNC(=N)N)NC(=O)[C@H](CCCNC(=N)N)NC(=O)[C@H](CC(=O)O)NC(=O)[C@H](Cc2ccc(O)cc2)NC(=O)[C@@H]2CCCN2C(=O)[C@H](CO)NC(=O)[C@H](CCCNC(=N)N)NC(=O)[C@@H](N)CSSC[C@@H](C(N)=O)NC(=O)[C@H](Cc2ccc(O)cc2)NC1=O (H-CRSPYDRRRRYC-NH2; disulfide 1-12)	25%
CC[C@H](C)[C@H](NC(=O)[C@H](CCCNC(=N)N)NC(=O)[C@H](CCCNC(=N)N)NC(=O)[C@@H]1CSSC[C@H](N)C(=O)N[C@@H](CCCNC(=N)N)C(=O)N[C@@H](CO)C(=O)N2CCC[C@H]2C(=O)N[C@@H](Cc2ccc(O)cc2)C(=O)N[C@@H](CC(=O)O)C(=O)N[C@@H](CCCNC(=N)N)C(=O)N[C@@H](CCCNC(=N)N)C(=O)N[C@@H](CCCNC(=N)N)C(=O)N[C@@H](CCCNC(=N)N)C(=O)N[C@@H](Cc2ccc(O)cc2)C(=O)N1)C(=O)N[C@H](C(=O)N[C@@H](CC(=O)O)C(N)=O)[C@@H](C)O (H-CRSPYDRRRRYCRRITD-NH2; disulfide 1-12)	25%
CC[C@H](C)[C@H](NC(=O)[C@H](CCCNC(=N)N)NC(=O)[C@H](CCCNC(=N)N)NC(=O)[C@@H]1CSSC[C@H](NC(=O)[C@H](Cc2ccc(O)cc2)NC(=O)[C@H](CCCNC(=N)N)NC(=O)CN)C(=O)N[C@@H](CCCNC(=N)N)C(=O)N[C@@H](CO)C(=O)N2CCC[C@H]2C(=O)N[C@@H](Cc2ccc(O)cc2)C(=O)N[C@@H](CC(=O)O)C(=O)N[C@@H](CCCNC(=N)N)C(=O)N[C@@H](CCCNC(=N)N)C(=O)N[C@@H](CCCNC(=N)N)C(=O)N[C@@H](CCCNC(=N)N)C(=O)N[C@@H](Cc2ccc(O)cc2)C(=O)N1)C(=O)N[C@H](C(=O)N[C@@H](CC(=O)O)C(N)=O)[C@@H](C)O (H-GRYCRSPYDRRRRYCRRITD-NH2; disulfide 4-15)	25%
CC[C@H](C)[C@H](NC(=O)[C@H](CCCNC(=N)N)NC(=O)[C@H](CCCNC(=N)N)NC(=O)[C@@H]1CSSC[C@H](NC(=O)[C@H](Cc2ccc(O)cc2)NC(=O)[C@@H](N)CCCNC(=N)N)C(=O)N[C@@H](CCCNC(=N)N)C(=O)N[C@@H](CO)C(=O)N2CCC[C@H]2C(=O)N[C@@H](Cc2ccc(O)cc2)C(=O)N[C@@H](CC(=O)O)C(=O)N[C@@H](CCCNC(=N)N)C(=O)N[C@@H](CCCNC(=N)N)C(=O)N[C@@H](CCCNC(=N)N)C(=O)N[C@@H](CCCNC(=N)N)C(=O)N[C@@H](Cc2ccc(O)cc2)C(=O)N1)C(=O)N[C@H](C(=O)N[C@@H](CC(=O)O)C(N)=O)[C@@H](C)O (H-RYCRSPYDRRRRYCRRITD-NH2; disulfide 3-14)	25%
CC[C@H](C)[C@H](NC(=O)[C@H](CCCNC(=N)N)NC(=O)[C@H](CCCNC(=N)N)NC(=O)[C@@H]1CSSC[C@H](NC(=O)[C@@H](N)Cc2ccc(O)cc2)C(=O)N[C@@H](CCCNC(=N)N)C(=O)N[C@@H](CO)C(=O)N2CCC[C@H]2C(=O)N[C@@H](Cc2ccc(O)cc2)C(=O)N[C@@H](CC(=O)O)C(=O)N[C@@H](CCCNC(=N)N)C(=O)N[C@@H](CCCNC(=N)N)C(=O)N[C@@H](CCCNC(=N)N)C(=O)N[C@@H](CCCNC(=N)N)C(=O)N[C@@H](Cc2ccc(O)cc2)C(=O)N1)C(=O)N[C@H](C(=O)N[C@@H](CC(=O)O)C(N)=O)[C@@H](C)O (H-YCRSPYDRRRRYCRRITD-NH2; disulfide 2-13)	25%
CC[C@H](C)[C@@H]1NC(=O)[C@H](CCCNC(=N)N)NC(=O)[C@H](CCCNC(=N)N)NC(=O)[C@@H]2CSSC[C@H](NC(=O)[C@H](Cc3ccc(O)cc3)NC(=O)[C@H](CCCNC(=N)N)NC(=O)CNC(=O)[C@H](CC(=O)O)NC(=O)[C@H]([C@@H](C)O)NC1=O)C(=O)N[C@@H](CCCNC(=N)N)C(=O)N[C@@H](CO)C(=O)N1CCC[C@H]1C(=O)N[C@@H](Cc1ccc(O)cc1)C(=O)N[C@@H](CC(=O)O)C(=O)N[C@@H](CCCNC(=N)N)C(=O)N[C@@H](CCCNC(=N)N)C(=O)N[C@@H](CCCNC(=N)N)C(=O)N[C@@H](CCCNC(=N)N)C(=O)N[C@@H](Cc1ccc(O)cc1)C(=O)N2 (cyclo(CRRITDGRYCRSPYDRRRRY); disulfide 1-10)	25%
H-ARYRSPYDRRRRYRRITD-NH2	20%
H-DRYRSPYDRRRRYRRITD-NH2	0%
H-GAYRSPYDRRRRYRRITD-NH2	20%
H-GDYRSPYDRRRRYRRITD-NH2	0%
H-GRARSPYDRRRRYRRITD-NH2	20%
H-GRRRSPYDRRRRYRRITD-NH2	10%
H-GRYAAPYDRRRRYRRITD-NH2	20%
H-GRYASPYDRRRRYRRITD-NH2	20%
H-GRYDSPYDRRRRYRRITD-NH2	0%
H-GRYRDPYDRRRRYRRITD-NH2	0%
H-GRYRSAYDRRRRYRRITD-NH2	20%
H-GRYRSDYDRRRRYRRITD-NH2	0%
H-GRYRSPADRRRRYRRITD-NH2	20%
H-GRYRSPRDRRRRYRRITD-NH2	10%
H-GRYRSPYARRRRYRRITD-NH2	20%

Molecule	inhibition
H-GRYRSPYDARRRYRRITD-NH2	20%
H-GRYRSPYDDRRRYRRITD-NH2	0%
H-GRYRSPYDRARRYRRITD-NH2	20%
H-GRYRSPYDRDRRYRRITD-NH2	0%
H-GRYRSPYDRRDRYRRITD-NH2	0%
H-GRYRSPYDRRRDYRRITD-NH2	0%
H-GRYRSPYDRRRRDRRITD-NH2	0%
H-GRYRSPYDRRRRRRRITD-NH2	inactive
H-GRYRSPYDRRRRYDRITD-NH2	0%
H-GRYRSPYDRRRRYRAITD-NH2	20%
H-GRYRSPYDRRRRYRDDTD-NH2	0%
H-GRYRSPYDRRRRYRDIDD-NH2	0%
H-GRYRSPYDRRRRYRDITD-NH2	0%
H-GRYRSPYDRRRRYRRATD-NH2	20%
H-GRYRSPYDRRRRYRRIAD-NH2	20%
H-GRYRSPYDRRRRYRRIRD-NH2	10%
H-GRYRSPYDRRRRYRRITA-NH2	20%
H-GRYRSPYDRRRRYRRITR-NH2	inactive
H-GRYRSPYRRRRRYRRITD-NH2	10%
H-GRYRSRYDRRRRYRRITD-NH2	10%
H-RRYRSPYDRRRRYRRITD-NH2	10%

same assay, conditions: Oocyte, filed as antagonist

Molecule	inhibition
H-GRDRSPYDRRRRYRRITD-NH2	Active
H-GRYRRPYDRRRRYRRITD-NH2	> 80%
H-GRYRSPDDRRRRYRRITD-NH2	Active
H-GRYRSPYDRRARYRRITD-NH2	Active
H-GRYRSPYDRRRAYRRITD-NH2	Active
H-GRYRSPYDRRRRARRITD-NH2	Active
H-GRYRSPYDRRRRYARITD-NH2	Active
H-GRYRSPYDRRRRYRRRTD-NH2	> 80%
